Where two headings read alike, the source gives them in different places.
Tests used:
clinical = settings: female, human, in vivo, LS Mean; for AUC(0-inf): AUC0-inf; for AUC(0-t): AUC0-t
[1] = male, Sprague Dawley, rat, in vivo
Description: Certain drug coated microarrays were tested in vivo in a preclinical model using Sprague Dawley rats. […] Male Sprague Dawley rats with jugular vein catheters were purchased from Charles River Laboratories. Once received, they were acclimated for at least 24 hours prior to dosing.
Typically, one hour prior to dosing microneedle arrays were removed from refrigeration (approximately 4° C.) and allowed to equilibrate to room temperature.
The standard procedure for skin preparation and microneedle array application is as follows.
One day prior to dosing, an area just above the hind legs on the dorsal surface of the rat was shaved using electric clippers. Nair® hair removal lotion (Church & Dwight Co.) was then applied to the area for 5 to 8 minutes to remove remaining fur stubble. The Nair® lotion was then thoroughly removed using a damp cloth. The next day a microneedle array was applied using a spring-loaded applicator. The microneedle array was left in contact with skin for five minutes, before being removed. During array application and contact time the rats were manually restrained.
Blood was collected at three time points from each animal out of a possible total of five time destinations (5 minutes, 15 minutes, 30 minutes, 45 minutes, 90 minutes) from each rat on a staggered schedule so that all time points would be represented with extra sampling at 15 minutes without overdrawing from any animal. Approximately 1 mL of blood was collected via the catheter from the jugular vein using a syringe and needle from rats for their first two blood draws. For the terminal blood collection, animals were euthanized via CO2 chamber and approximately 1 mL of blood was collected via cardiac puncture. The blood was immediately transferred to a serum separator tube that contained 25 μL of a 2.5 mg/ml aprotinin (Sigma) solution.
Blood was collected from each rat 5, 10, 15, 30 and 45 minutes post dose. Approximately 600 μL of blood was collected via the catheter from the jugular vein using a syringe and needle from rats for their first four blood draws. For the terminal blood collection, animals were euthanized via CO2 chamber and approximately 600 μL of blood was collected via cardiac puncture. The blood was immediately transferred to a serum separator tube that contained 12 μL of a 2.5 mg/ml aprotinin (Sigma) solution.
Blood was collected three or four times from each rat at the time points depicted in the tables below. Approximately 1 mL of blood was collected via the catheter from the jugular vein using a syringe and needle from rats for any non-terminal time points. For the terminal blood collection, animals were euthanized via CO2 chamber and approximately 1 mL of blood was collected via cardiac puncture. The blood was immediately transferred to a serum separator tube that contained 20 μL of a 2.5 mg/ml aprotinin (Sigma) solution.
Blood was collected from each rat 5, 15, 30, 45, 90 and 120 minutes post dose. Approximately 500 μL of blood was collected via the catheter from the jugular vein using a syringe and needle from rats for their first five blood draws. For the terminal blood collection, animals were euthanized via CO2 chamber and approximately 500 μL of blood was collected via cardiac puncture.

Molecule `CC[C@H](C)[C@H](NC(=O)[C@H](CO)NC(=O)[C@H](CCCCN)NC(=O)CNC(=O)[C@H](CCCCN)NC(=O)[C@H](CC(=O)O)NC(=O)[C@H](Cc1cnc[nH]1)NC(=O)[C@H](CC(C)C)NC(=O)[C@H](CC(C)C)NC(=O)[C@H](CCC(N)=O)NC(=O)[C@H](Cc1cnc[nH]1)NC(=O)[C@H](CCC(=O)O)NC(=O)[C@H](CO)NC(=O)[C@@H](NC(=O)[C@H](C)N)C(C)C)C(=O)N[C@@H](CCC(N)=O)C(=O)N[C@@H](CC(=O)O)C(=O)N[C@@H](CC(C)C)C(=O)N[C@@H](CCCNC(=N)N)C(=O)N[C@@H](CCCNC(=N)N)C(=O)N[C@@H](CCCNC(=N)N)C(=O)N[C@@H](CCC(=O)O)C(=O)N[C@@H](CC(C)C)C(=O)N[C@@H](CC(C)C)C(=O)N[C@@H](CCC(=O)O)C(=O)N[C@@H](CCCCN)C(=O)N[C@@H](CC(C)C)C(=O)N[C@@H](CC(C)C)C(=O)NC(C)(C)C(=O)N[C@@H](CCCCN)C(=O)N[C@@H](CC(C)C)C(=O)N[C@@H](Cc1cnc[nH]1)C(=O)N[C@H](C(=O)N[C@@H](C)C(N)=O)[C@@H](C)O` [Peptide] has an AUC(0-inf) (clinical; 100 ug) of 0.0885 ng·h/mL, an AUC(0-t) (clinical; 100 ug) of 0.112 ng·h/mL and a Cmax (clinical; 100 ug) of 0.366 ng/mL. The AUC(0-inf) (clinical; 150 ug) was 0.119 ng·h/mL, the AUC(0-t) (clinical; 150 ug) was 0.107 ng·h/mL and the Cmax (clinical; 150 ug) was 0.315 ng/mL. It also gave an AUC(0-inf) (clinical; 200 ug) of 0.11 ng·h/mL, an AUC(0-t) (clinical; 200 ug) of 0.0975 ng·h/mL and a Cmax (clinical; 200 ug) of 0.337 ng/mL. For the same molecule, the AUC(0-t) ([1]; 20 ug/kg) was 166 ng·min/mL, the Cmax ([1]; 20 ug/kg) was 7.15 ng/mL and the “Cmax (20 μg/kg Dose)” value ([1]; 20 ug/kg) was 7.15 ng/mL. For the same molecule, the T1/2 ([1]; 20 ug/kg) was 14 min, the Tmax ([1]; 20 ug/kg) was 15 min and the “Concentrations of Peptide in Serum” value ([1]; 26.2 ug, 5 min) was 45.29 ng/mL. The “Concentrations of Peptide in Serum” value ([1]; 26.2 ug, 0.25 h) was 59.72 ng/mL, the “Concentrations of Peptide in Serum” value ([1]; 26.2 ug, 0.5 h) was 20.15 ng/mL and the “Concentrations of Peptide in Serum” value ([1]; 26.2 ug, 0.75 h) was 11.63 ng/mL. For the same molecule, the T1/2 ([1]; 27 ug) was 26 min, the Tmax ([1]; 27 ug) was 15 min and the “Concentrations of Peptide in Serum” value ([1]; 27 ug, 5 min) was 21.34 ng/mL. For the same molecule, the “Concentrations of Peptide in Serum” value ([1]; 27 ug, 0.25 h) was 31.08 ng/mL, the “Concentrations of Peptide in Serum” value ([1]; 27 ug, 0.5 h) was 12.43 ng/mL and the “Concentrations of Peptide in Serum” value ([1]; 27 ug, 0.75 h) was 6.99 ng/mL. For the same molecule, the “Concentrations of Peptide in Serum” value ([1]; 32 ug, 5 min) was 37.76 ng/mL, the “Concentrations of Peptide in Serum” value ([1]; 32 ug, 10 min) was 29.94 ng/mL and the “Concentrations of Peptide in Serum” value ([1]; 32 ug, 0.25 h) was 37.48 ng/mL. For the same molecule, the “Concentrations of Peptide in Serum” value ([1]; 32 ug, 0.5 h) was 15.99 ng/mL, the “Concentrations of Peptide in Serum” value ([1]; 32 ug, 0.75 h) was 8.39 ng/mL and the AUC(0-t) ([1]; 141.9 ug) was 5199 ng·min/mL. The Cmax ([1]; 141.9 ug) was 153.74 ng/mL, the Tmax ([1]; 141.9 ug) was 15 min and the “% F” value ([1]; 386.5 ug) was 24%. It also gave an AUC(0-t) ([1]; 386.5 ug) of 6899 ng·min/mL, a Cmax ([1]; 386.5 ug) of 179.02 ng/mL and a T1/2 ([1]; 386.5 ug) of 16 min. The Tmax ([1]; 386.5 ug) was 15 min.
